Test results as given in the Kinase Knowledgebase extract (Sharma et al. 2016).

The molecules below were run against PIK3CA (human) (UniProt P42336) (assay: Inhibition of PIK3CA Kinase Activity).
Chain of PIK3CA (human) (P42336 whole entry, looked up): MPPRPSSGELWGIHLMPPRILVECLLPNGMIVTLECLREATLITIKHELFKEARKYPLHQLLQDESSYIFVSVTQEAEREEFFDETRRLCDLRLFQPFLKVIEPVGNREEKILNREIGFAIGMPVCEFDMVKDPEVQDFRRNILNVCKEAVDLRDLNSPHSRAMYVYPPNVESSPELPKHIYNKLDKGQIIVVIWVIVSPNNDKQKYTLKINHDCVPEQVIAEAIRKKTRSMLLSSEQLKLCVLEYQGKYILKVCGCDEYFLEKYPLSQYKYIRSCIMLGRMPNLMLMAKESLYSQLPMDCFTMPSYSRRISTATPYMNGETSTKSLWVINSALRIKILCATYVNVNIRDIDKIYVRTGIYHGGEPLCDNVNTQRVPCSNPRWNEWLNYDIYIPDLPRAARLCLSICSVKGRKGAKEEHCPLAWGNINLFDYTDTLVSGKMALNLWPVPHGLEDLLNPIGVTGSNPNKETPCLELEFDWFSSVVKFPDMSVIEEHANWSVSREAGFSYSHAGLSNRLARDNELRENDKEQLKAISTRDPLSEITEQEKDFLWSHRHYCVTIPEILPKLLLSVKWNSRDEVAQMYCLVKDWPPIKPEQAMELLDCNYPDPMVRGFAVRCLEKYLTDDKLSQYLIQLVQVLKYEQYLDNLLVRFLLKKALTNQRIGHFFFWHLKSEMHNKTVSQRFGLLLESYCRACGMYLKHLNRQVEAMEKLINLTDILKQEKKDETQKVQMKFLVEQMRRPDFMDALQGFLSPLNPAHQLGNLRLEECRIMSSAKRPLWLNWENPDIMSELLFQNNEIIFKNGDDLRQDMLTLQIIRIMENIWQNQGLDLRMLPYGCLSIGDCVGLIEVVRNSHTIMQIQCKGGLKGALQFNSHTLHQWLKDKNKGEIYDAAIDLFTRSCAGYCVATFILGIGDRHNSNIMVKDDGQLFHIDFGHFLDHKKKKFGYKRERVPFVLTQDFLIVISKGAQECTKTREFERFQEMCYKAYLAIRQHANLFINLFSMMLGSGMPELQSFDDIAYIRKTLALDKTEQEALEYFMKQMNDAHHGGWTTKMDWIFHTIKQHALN
For `Cc1nc(N)sc1-c1ccc2c(c1)CN(c1ncnc(C)c1Cc1ccc(F)cc1)CCO2`, the IC50 was 250 to 1000 nM.
Work on `CCNc1nc2ncc(-c3ccc4c(c3)CN(c3ccncn3)CCO4)cc2[nH]1` yielded an IC50 of 50 to 250 nM.
Molecule `Cc1nc2cc(-c3ccc4c(c3)CN(c3nc([C@@H]5CCCN5)nc5c3CC(C)(C)CC5)CCO4)cnc2[nH]1` has an IC50 of 10 to 50 nM.
Molecule `Cc1nc2ccc(-c3ccc4c(c3)CN(c3ncnc5c3CC(C)C5)CCO4)cc2[nH]1` (stereo not given) has an IC50 of 50 to 250 nM.
Molecule `Nc1nc2ccc(-c3ccc4c(c3)CN(c3ccnc5ccccc35)CCO4)cc2[nH]1` has an IC50 of 10 to 50 nM.
`COc1ccc2c(N3CCOc4ccc(-c5cnc6nc[nH]c6c5)cc4C3)nc(C)nc2c1` was tested, and the IC50 was at most 10 nM.
With `Cc1nc2ccc(-c3ccc4c(c3)CN(c3ncncc3C)CCO4)cc2[nH]1` the IC50 was 250 to 1000 nM.
`Cc1nc2ccc(-c3ccc4c(c3)CN(c3ncnc(C)c3Cc3cccc(Cl)c3)CCO4)cc2[nH]1` was tested, and the IC50 was 10 to 50 nM.
`COc1cc2nccc(N3CCOc4ccc(-c5cnc6nc(N)[nH]c6c5)cc4C3)c2cc1OC` was tested, and the IC50 was at most 10 nM.
`CC1(C)CCc2ncnc(N3CCOc4ccc(-c5cnc(N)c(S(=O)(=O)N6CCC6)c5)cc4C3)c2C1` gave an IC50 of 10 to 50 nM.
`COc1cccc(Cc2c(C)ncnc2N2CCOc3ccc(-c4ccc5nc(C)[nH]c5c4)cc3C2)c1` was tested, and the IC50 was 10 to 50 nM.
`CN(C)Cc1nc2c(c(N3CCOc4ccc(-c5cnc(Cl)c(NS(C)(=O)=O)c5)cc4C3)n1)CC(C)(C)CC2` was tested, and the IC50 was at most 10 nM.
For `CCNc1nc2ncc(-c3ccc4c(c3)CN(c3ncnc(C)c3Cc3ccc(F)cc3)CCO4)cc2[nH]1`, the IC50 was at most 10 nM.
Work on `CC1CCc2c(ncnc2N2CCOc3ccc(-c4cnc5nc(N)[nH]c5c4)cc3C2)C1` (stereo not given) yielded an IC50 of at most 10 nM.
Molecule `Cc1nc2cc(-c3ccc4c(c3)CN(c3nc(CN(C)C)ncc3C(C)C)CCO4)ccc2[nH]1` has an IC50 of 10 to 50 nM.
Molecule `Cc1nc2ncc(-c3ccc4c(c3)CN(c3nc(CNCCF)nc5c3CC(C)(C)CC5)CCO4)cc2[nH]1` has an IC50 of 10 to 50 nM.
`CC1(C)CCc2ncnc(N3CCOc4ccc(-c5cnc6[nH]c(C7CC7)nc6c5)cc4C3)c2C1` gave an IC50 of 10 to 50 nM.
In the case of `Cc1nc2ncc(-c3ccc4c(c3)CN(c3nc(CN5CC[C@@H](F)C5)nc5c3CC(C)(C)CC5)CCO4)cc2[nH]1`, the IC50 is reported as at most 10 nM.
In the case of `CC1(C)CCc2ncnc(N3CCOc4ccc(-c5cnc(N)c(S(=O)(=O)CC(O)CO)c5)cc4C3)c2C1` (stereo not given), the IC50 is reported as 10 to 50 nM.
With `CNc1ncc(-c2ccc3c(c2)CN(c2ncnc4c2CC(C)(C)CC4)CCO3)cc1S(=O)(=O)NCCO` the IC50 was 10 to 50 nM.
With `CCCc1c(C)nc(CN(C)C)nc1N1CCOc2ccc(-c3cnc4sc(N)nc4c3)cc2C1` the IC50 was at most 10 nM.
Molecule `CC1(C)C=Cc2ncnc(N3CCOc4ccc(-c5cnc6nc(C7CC7)[nH]c6c5)cc4C3)c2C1` has an IC50 of 10 to 50 nM.
In the case of `COc1cc2c(N3CCOc4ccc(-c5ccc6nc(C)[nH]c6c5)cc4C3)ncnc2c(OC)c1OC`, the IC50 is reported as 50 to 250 nM.
With `Cc1nc2c(c(N3CCOc4ccc(-c5cnc6nc(C)[nH]c6c5)cc4C3)n1)CC(C)(C)CC2` the IC50 was 10 to 50 nM.
For `CCNc1nc2ccc(-c3ccc4c(c3)CN(c3nc(CC)nc5cc(OC)ccc35)CCO4)cc2[nH]1`, the IC50 was at most 10 nM.
In the case of `CCNc1nc2ccc(-c3ccc4c(c3)CN(c3nc(NC)nc5ccccc35)CCO4)cc2[nH]1`, the IC50 is reported as 50 to 250 nM.
`CCc1ncnc(N2CCOc3ccc(-c4ccc5nc(C)[nH]c5c4)cc3C2)c1CC` was tested, and the IC50 was 50 to 250 nM.
Work on `Cc1ncnc(N2CCOc3ccc(-c4ccc5nc(N)sc5n4)cc3C2)c1Cc1ccc(F)cc1` yielded an IC50 of 50 to 250 nM.
`CCNc1nc2ccc(-c3ccc4c(c3)CN(c3nc(C)nc5cc(OC)ccc35)CCO4)cc2[nH]1` gave an IC50 of at most 10 nM.
`Cc1nc2ccc(-c3ccc4c(c3)CN(c3ccnc5cc(C#N)ccc35)CCO4)cc2[nH]1` gave an IC50 of 50 to 250 nM.
For `Cc1ncnc(N2CCOc3ccc(-c4cnc(N)s4)cc3C2)c1Cc1ccc(F)cc1`, the IC50 was at most 10 nM.
`CCN(C)Cc1nc2c(c(N3CCOc4ccc(-c5cnc6nc(C)[nH]c6c5)cc4C3)n1)CC(C)(C)CC2` showed an IC50 of at most 10 nM.
`Cc1nc2ncc(-c3ccc4c(c3)CN(c3ncnc5c3CCC(C)(c3ccccc3)C5)CCO4)cc2[nH]1` (stereo not given) was tested, and the IC50 was 10 to 50 nM.
Work on `COc1ccc2c(N3CCOc4ccc(-c5ccc6[nH]ncc6c5)cc4C3)nc(C)nc2c1` yielded an IC50 of 250 to 1000 nM.
`CC1(C)CCc2ncnc(N3CCOc4ccc(-c5cnc(N)c(S(=O)(=O)N6CCNCC6)c5)cc4C3)c2C1` showed an IC50 of 50 to 250 nM.
With `Cc1nc(CN(C)C)nc(N2CCOc3ccc(-c4cnc5sc(N)nc5c4)cc3C2)c1Br` the IC50 was 10 to 50 nM.
With `CC1(C)CCc2ncnc(N3CCOc4ccc(-c5cnc(F)c(NS(C)(=O)=O)c5)cc4C3)c2C1` the IC50 was 50 to 250 nM.
`Cc1nc2ccc(-c3ccc4c(c3)CN(c3cc(C(F)(F)F)nc5ccccc35)CCO4)cc2[nH]1` showed an IC50 of 50 to 250 nM.
Molecule `CC(O)c1nc2cc(-c3ccc4c(c3)CN(c3ncnc5c3CC(C)(C)CC5)CCO4)cnc2[nH]1` (stereo not given) has an IC50 of 50 to 250 nM.
In the case of `CC1(C)CCc2ncnc(N3CCOc4ccc(-c5ccc6nc(NCCF)[nH]c6c5)cc4C3)c2C1`, the IC50 is reported as 10 to 50 nM.
Work on `Cc1ncnc(N2CCOc3ccc(-c4cnc(N)cn4)cc3C2)c1Cc1ccc(F)cc1` yielded an IC50 of 250 to 1000 nM.
For `CC[C@H]1CCc2c(nc(CN(C)C)nc2N2CCOc3ccc(-c4cnc5nc(C)[nH]c5c4)cc3C2)C1`, the IC50 was at most 10 nM.
`Cc1nc2ccc(-c3ccc4c(c3)CN(c3ncnc5c(C#N)c6n(c35)CCCC6)CCO4)cc2[nH]1` was tested, and the IC50 was 50 to 250 nM.
`CCC(N)CNS(=O)(=O)c1cc(-c2ccc3c(c2)CN(c2ncnc4c2CC(C)(C)CC4)CCO3)cnc1N` (stereo not given) was tested, and the IC50 was 10 to 50 nM.
`Cc1nc2ccc(-c3ccc4c(c3)CN(c3cc(-c5ccccc5)nc5ccccc35)CCO4)cc2[nH]1` gave an IC50 of 50 to 250 nM.
